Measurements: patent US12195427B2, “MASP-2 inhibitors and methods of use” (priority 2018, dated 2025)

Biological target: MASP-2 CCP2-SP (Homo sapiens (Human), UniProt O00187)
Experiment: MASP-2 co-crystallization, X-ray crystallography and structure analysis (H-bonds, van der Waals contacts);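 on Ligand-pharmacophore element distance, pharmacophore element C2: distance from averaged pharmacophore element to bound ligand; missing value means element absent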;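 on Ligand-pharmacophore element distance, pharmacophore element C3: distance from averaged pharmacophore element to bound ligand; missing value means element absent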;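 on Ligand-pharmacophore element distance, pharmacophore element C4: distance from averaged pharmacophore element to bound ligand; missing value means element absent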;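 on Ligand-pharmacophore element distance, pharmacophore element C5: distance from averaged pharmacophore element to bound ligand; missing value means element absent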
Set-up: van der Waals contact distance, MASP-2 HIS 483 atom CD2 / van der Waals contact distance, MASP-2 HIS 483 atom NE2 / van der Waals contact distance, SER 654 C to compound atom / van der Waals contact distance, SER 654 O to compound atom / van der Waals contact distance, TRP 655 C to compound atom / van der Waals contact distance, MASP-2 GLY 528 atom CA / van der Waals contact distance TRP 655 atom CZ3 / van der Waals contact distance TRP 655 atom N / van der Waals contact distance TRP 655 atom CE3 / van der Waals contact distance GLY 656 atom C / van der Waals contact distance GLY 656 atom CA / van der Waals contact distance GLY 656 atom O / van der Waals contact distance, MASP-2 TYR 607 atom CD1 / van der Waals contact distance, MASP-2 PRO 606 atom O / d(C3,CA1) / d(CA1,N1)2 / d(H4,O1) / d(H4,O2) / d(O1,O2) / d(CA1,O2) / d(CA6,O1) / d(CA6,O2) / d(CA1,C5) / d(O2,H3) / d(N2,C2) / d(CA5,N2) / d(N2,C4) / d(N2,C6) / d(N2,CA3) / d(N2,O3) / d(O4,H2): unit not given beside the values
From the text: This example illustrates the preparation of recombinant MASP-2 protein, based on UniProt O00187, human mannan-binding lectin serine protease 2. Expression constructs for human MASP-2 CCP2-SP and CCP2-SP-6HIS were generated for recombinant expression in E. coli cells.
Typically, crystallization hits were obtained by screening against […] 96-well crystallization reagent kits (GRAS6, GRAS2, Hampton Research; MORPHEUS, Molecular Dimensions; Wizard 1&2 Cryo, Rigaku Reagents) and crystal growth was inspected by optical microscopy. Crystals were used directly or further optimized for X-ray diffraction. Crystals were captured with cryogenic loops and dipped into liquid nitrogen directly or cryoprotected with a 20% glycerol in crystallization formulation before flash-cooling in liquid nitrogen.
Thereafter crystals are transferred once or twice for soaking within the crystallization solution containing the MASP-2 inhibitor.
Crystals were diffracted with synchrotron X-rays of […] and X-ray diffraction datasets were collected at beamlines SSRL BL9-2, BL14-1, BL12-2 as well as ALS sector 5 using Dectris Pilatus and Eiger detectors. Structures were determined by molecular replacement using portions of the structure 1Q3X as search models and partially refined with Buster 2.10.2 or Refmac 5.8. […] When multiple ligand poses were observed, for instance arising from multiple molecules in the asymmetric unit or refined dual poses within the same molecule, only one pose was selected and analyzed.
LigPlot+ calls these ‘nonbonded contacts’ or ‘hydrophobic contacts’. Despite the name, there are atom pairings that include possible H-bonds. Thus, in some instances, the Table A2 also contains H-bond interactions.

[1] = Table A5-1 pharmacophore: distance between elements, S2/S1 region
[2] = Table A5-2 pharmacophore distance, S3/S4 region
[3] = Table A7-1, between pharmacophore elements of the bound compound

MASP-2 CCP2-SP, sequence (O00187 445-686): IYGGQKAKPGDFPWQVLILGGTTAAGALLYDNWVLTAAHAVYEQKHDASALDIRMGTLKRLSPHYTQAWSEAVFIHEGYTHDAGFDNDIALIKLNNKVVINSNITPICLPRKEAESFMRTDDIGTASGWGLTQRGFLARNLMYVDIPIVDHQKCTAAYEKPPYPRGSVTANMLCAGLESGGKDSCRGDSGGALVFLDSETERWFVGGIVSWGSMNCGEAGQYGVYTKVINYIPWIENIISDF
MASP-2 CCP2-SP, sequence (O00187 364-432 partner): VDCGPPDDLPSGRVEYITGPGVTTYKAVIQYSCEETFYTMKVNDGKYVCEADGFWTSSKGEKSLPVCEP

C[C@H](NC(=O)[C@H]1C[C@@H](c2ccccc2)CCN1)C(=O)NCc1cc(Cl)ccc1O.Cl [1078_13]
Ligand-pharmacophore element distance, pharmacophore element C2 (Table A4-1, element C2): 0.58
Ligand-pharmacophore element distance, pharmacophore element C3 (Table A4-1, element C3): 0
Ligand-pharmacophore element distance, pharmacophore element C4 (Table A4-1, element C4): 0
Ligand-pharmacophore element distance, pharmacophore element C5 (Table A4-1, element C5): 0.47
Ligand-pharmacophore element distance, pharmacophore element C6 (Table A4-1, element C6): 0
Ligand-pharmacophore element distance, pharmacophore element C7 (Table A4-1, element C7): 0
Ligand-pharmacophore element distance, pharmacophore element CA1 (Table A4-1, element CA1): 1.62
Ligand-pharmacophore element distance, pharmacophore element CA2 (Table A4-1, element CA2): 0.73
Ligand-pharmacophore element distance, pharmacophore element CA3 (Table A4-1, element CA3): 0
Ligand-pharmacophore element distance, pharmacophore element CA4 (Table A4-1, element CA4): 0
Ligand-pharmacophore element distance, pharmacophore element CA5 (Table A4-1, element CA5): 0
Ligand-pharmacophore element distance, pharmacophore element CA6 (Table A4-1, element CA6): 0
d(CA1,C5) [1]: 3.12
d(CA1,O1) [1]: 4.37
d(CA1,O2) [1]: 4.66
d(CA1,O4) [1]: 2.76
d(H4,O1) [1]: 3.14
d(H4,O2) [1]: 3.66
d(O1,O2) [1]: 3.25
d(O4,H2) [1]: 0.98
d(N2,C2) [2]: 1.47
d(N2,CA2) [2]: 5.61
d(O2,H3) [2]: 2.11
d(O2,N2) [2]: 2.79
a(C5, CA1, O1) (Table A6-1 pharmacophore angle): 162.99
a(CA1, O1, O2) (Table A6-1 pharmacophore angle): 115.77
a(CA1, O4, H2) (Table A6-1 pharmacophore angle): 129.33
a(O1, CA1, O4) (Table A6-1 pharmacophore angle): 65.06
a(O1, O2, H4) (Table A6-1 pharmacophore angle): 123.59
a(O1, O2, H3) (Table A6-2 pharmacophore angle): 135.66
a(O1, O2, N2) (Table A6-2 pharmacophore angle): 146.15
a(O2, N2, C2) (Table A6-2 pharmacophore angle): 127.57
a(O2, N2, CA2) (Table A6-2 pharmacophore angle): 154.39
Pharmacophore torsion angle a(C5, CA1, O1, H4) [3]: −7.66
Pharmacophore torsion angle a(H4, O1, O2, H3) [3]: −157.30
Pharmacophore torsion angle a(H4, O1, O2, N2) [3]: −162.99
Pharmacophore torsion angle a(O1, H4, O2, CA1) [3]: −78.80
Pharmacophore torsion angle a(O1, O2, N2, C2) [3]: 118.91
Pharmacophore torsion angle a(O1, O2, N2, CA2) (Table A7-2, between pharmacophore elements of the bound compound): 137.37
